According to a compilation of properties of binary mixtures (doi:10.1524/zpch.2013.0326):

Test: xn = mol fraction of the nth substance listed
Conditions: 101 kPa

CCCCCCCC[n+]1ccc2ccccc2c1.O=S(=O)([N-]S(=O)(=O)C(F)(F)F)C(F)(F)F + c1ccncc1
viscosity [mPa·s]
Conditions	298.15 K	308.15 K	328.15 K	338.15 K	348.15 K
x2 = 0	369	191	–	44.8	31.62
x2 = 0.0945	292	–	57	–	–
x2 = 0.1869	205	113.6	44.5	30.56	21.19
x2 = 0.2762	141.5	81.4	34.07	23.96	17.53
x2 = 0.3675	89.1	53.9	24.08	17.44	13.12
x2 = 0.4584	56.5	35.87	17.33	12.94	10.01
x2 = 0.5383	42.09	27.64	14.12	–	8.48
x2 = 0.637	19.55	13.92	8.02	6.34	5.11
x2 = 0.7274	10.36	7.76	–	3.95	3.3
x2 = 0.8199	6.68	–	3.64	–	2.67
x2 = 0.9064	3.11	2.6	1.92	1.68	1.49

CCCCCCCC[n+]1ccc2ccccc2c1.O=S(=O)([N-]S(=O)(=O)C(F)(F)F)C(F)(F)F + c1ccsc1
viscosity [mPa·s]
Conditions	298.15 K	308.15 K	318.15 K	328.15 K	338.15 K	348.15 K
x2 = 0	369	191	–	67.9	44.8	31.62
x2 = 0.0964	300	–	–	57.9	38.71	27.2
x2 = 0.1907	215	118	70.9	45.7	33.3	22.4
x2 = 0.2739	155.2	88.3	–	36.23	25.31	18.35
x2 = 0.3572	112.1	66.1	42.17	28.66	–	15.04
x2 = 0.4456	72.5	44.61	29.44	20.52	14.97	–
x2 = 0.542	–	–	19.21	13.96	10.53	8.22
x2 = 0.6385	23.26	–	11.79	8.96	6.98	5.57
x2 = 0.7244	12.82	9.45	7.2	5.63	4.53	3.73
x2 = 0.821	–	–	4.88	4.03	3.4	2.91
x2 = 0.8627	5.27	4.26	3.53	2.98	2.55	2.22
x2 = 0.9065	3.34	–	–	2.04	1.78	1.57
x2 = 0.935	2.38	2.01	1.73	1.51	1.34	1.25
